Results published in ChEMBL document CHEMBL1201862, “PubChem BioAssay data set” (2004).
Structures can show the parent of a compound that is named as a salt. Calls of active or inactive are those of the source.

Assays:
[1] = target: T1, Heat shock factor protein 1 (Mus musculus, UniProt P38532); test: HSF1 potentiators in luciferase reporter cells, confirmation, cell-based, NIH3T3, luminescence, dose retest (AID 435004); format: functional;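 further: stress induced by proteasome inhibitor MG132 added 30 min after compound; luciferase reporter driven by HSF1 response element in NIH3T3 cells; actives raise luminescence as potentiators of the MG132 stress response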
T1 sequence (P38532 whole entry): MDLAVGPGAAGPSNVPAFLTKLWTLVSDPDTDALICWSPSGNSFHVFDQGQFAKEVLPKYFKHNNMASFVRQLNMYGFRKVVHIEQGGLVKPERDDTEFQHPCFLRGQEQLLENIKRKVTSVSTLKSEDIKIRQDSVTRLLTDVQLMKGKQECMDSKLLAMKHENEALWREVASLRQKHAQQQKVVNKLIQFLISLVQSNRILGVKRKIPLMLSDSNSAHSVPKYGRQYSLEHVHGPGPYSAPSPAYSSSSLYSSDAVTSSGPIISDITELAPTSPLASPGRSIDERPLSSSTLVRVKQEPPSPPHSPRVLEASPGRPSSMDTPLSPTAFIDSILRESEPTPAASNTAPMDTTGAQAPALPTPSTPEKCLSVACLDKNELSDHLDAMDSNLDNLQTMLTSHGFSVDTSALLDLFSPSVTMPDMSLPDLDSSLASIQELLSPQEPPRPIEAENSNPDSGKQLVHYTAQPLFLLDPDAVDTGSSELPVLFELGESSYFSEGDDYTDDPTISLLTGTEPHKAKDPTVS

[2] = target: Voltage-gated inwardly rectifying potassium channel KCNH2 (Homo sapiens, UniProt Q12809); details: Potency;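 further: confirmatory quantitative high-throughput screen measuring inhibition of hERG channel activity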
Sequence of Voltage-gated inwardly rectifying potassium channel KCNH2 (Q12809 whole entry): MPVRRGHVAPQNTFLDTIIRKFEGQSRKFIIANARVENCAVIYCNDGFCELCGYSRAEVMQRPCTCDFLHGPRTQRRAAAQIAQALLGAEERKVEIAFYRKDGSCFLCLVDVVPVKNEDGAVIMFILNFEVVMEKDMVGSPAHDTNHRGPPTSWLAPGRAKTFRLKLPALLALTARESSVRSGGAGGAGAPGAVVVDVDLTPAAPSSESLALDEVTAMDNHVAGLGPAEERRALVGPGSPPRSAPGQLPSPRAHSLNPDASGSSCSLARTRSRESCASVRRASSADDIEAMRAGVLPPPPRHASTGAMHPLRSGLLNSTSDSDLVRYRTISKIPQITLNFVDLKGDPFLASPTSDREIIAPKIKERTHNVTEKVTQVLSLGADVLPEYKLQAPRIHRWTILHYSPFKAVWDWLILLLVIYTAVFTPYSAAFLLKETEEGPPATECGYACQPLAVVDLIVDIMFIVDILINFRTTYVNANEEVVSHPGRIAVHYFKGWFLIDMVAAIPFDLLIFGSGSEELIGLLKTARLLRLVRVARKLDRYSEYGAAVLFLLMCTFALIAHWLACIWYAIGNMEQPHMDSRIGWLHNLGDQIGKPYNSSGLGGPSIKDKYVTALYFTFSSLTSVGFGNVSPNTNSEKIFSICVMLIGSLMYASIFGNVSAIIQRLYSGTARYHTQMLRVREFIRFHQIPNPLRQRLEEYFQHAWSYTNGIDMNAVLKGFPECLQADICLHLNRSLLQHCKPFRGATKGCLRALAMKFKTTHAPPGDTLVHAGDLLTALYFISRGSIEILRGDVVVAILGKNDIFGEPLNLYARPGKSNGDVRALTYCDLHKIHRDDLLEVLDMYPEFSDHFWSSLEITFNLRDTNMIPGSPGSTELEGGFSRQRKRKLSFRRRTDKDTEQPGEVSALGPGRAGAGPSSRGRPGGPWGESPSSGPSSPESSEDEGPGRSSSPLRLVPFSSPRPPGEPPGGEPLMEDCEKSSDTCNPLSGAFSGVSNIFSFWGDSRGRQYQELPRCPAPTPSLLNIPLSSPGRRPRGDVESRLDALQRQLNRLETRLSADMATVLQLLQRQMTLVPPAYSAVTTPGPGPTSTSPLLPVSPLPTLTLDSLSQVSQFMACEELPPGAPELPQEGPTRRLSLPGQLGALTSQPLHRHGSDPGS

HEK293 [3] = test: HEK cell cytotoxicity by LDH release, dose response, cytotoxicity control for IDE activator project, fluorescence, HEK cells (AID 588440); format: functional, cell-based; details: Homo sapiens;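 further: cytotoxicity by LDH release measuring loss of membrane integrity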
[4] = target: T2, Methionyl-tRNA synthetase, putative (Trypanosoma brucei brucei, UniProt Q38C91); format: functional, Trypanosoma brucei brucei strain 927/4 GUTat10.1
T2 sequence (Q38C91 whole entry): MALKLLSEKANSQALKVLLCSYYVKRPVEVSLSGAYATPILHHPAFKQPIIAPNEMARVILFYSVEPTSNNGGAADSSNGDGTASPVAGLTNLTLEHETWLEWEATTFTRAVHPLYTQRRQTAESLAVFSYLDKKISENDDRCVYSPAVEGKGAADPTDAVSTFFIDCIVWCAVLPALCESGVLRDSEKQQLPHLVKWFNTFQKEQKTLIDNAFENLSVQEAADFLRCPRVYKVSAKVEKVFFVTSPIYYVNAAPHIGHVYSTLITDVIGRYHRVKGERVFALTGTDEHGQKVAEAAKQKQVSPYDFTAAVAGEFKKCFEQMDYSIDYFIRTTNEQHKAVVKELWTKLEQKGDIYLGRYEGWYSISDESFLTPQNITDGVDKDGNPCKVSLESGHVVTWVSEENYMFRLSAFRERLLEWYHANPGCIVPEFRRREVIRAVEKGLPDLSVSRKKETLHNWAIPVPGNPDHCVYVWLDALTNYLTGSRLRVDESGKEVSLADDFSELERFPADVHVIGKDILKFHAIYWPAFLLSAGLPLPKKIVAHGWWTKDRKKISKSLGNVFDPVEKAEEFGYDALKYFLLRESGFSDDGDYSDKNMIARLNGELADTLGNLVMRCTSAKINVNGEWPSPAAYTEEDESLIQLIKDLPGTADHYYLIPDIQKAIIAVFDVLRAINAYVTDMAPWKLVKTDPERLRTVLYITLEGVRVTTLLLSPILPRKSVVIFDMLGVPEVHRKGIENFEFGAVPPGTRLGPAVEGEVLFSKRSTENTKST

[5] = HepG2 cell cytotoxicity, dose response, cytotoxicity control for non-replicating M. tuberculosis project (AID 489018); format: functional; details: Mycobacterium tuberculosis
[6] = target: T2, Methionyl-tRNA synthetase, putative; format: functional, Trypanosoma brucei brucei strain 927/4 GUTat10.1; remark: listed apart in the source
Insulin-degrading enzyme [7] = target: T3, Insulin-degrading enzyme (Homo sapiens, UniProt P14735); test: activators of endogenous IDE in HEK cells, dose response, cell-based, fluorescence polarization (AID 588439); format: functional
T3 sequence (P14735 whole entry): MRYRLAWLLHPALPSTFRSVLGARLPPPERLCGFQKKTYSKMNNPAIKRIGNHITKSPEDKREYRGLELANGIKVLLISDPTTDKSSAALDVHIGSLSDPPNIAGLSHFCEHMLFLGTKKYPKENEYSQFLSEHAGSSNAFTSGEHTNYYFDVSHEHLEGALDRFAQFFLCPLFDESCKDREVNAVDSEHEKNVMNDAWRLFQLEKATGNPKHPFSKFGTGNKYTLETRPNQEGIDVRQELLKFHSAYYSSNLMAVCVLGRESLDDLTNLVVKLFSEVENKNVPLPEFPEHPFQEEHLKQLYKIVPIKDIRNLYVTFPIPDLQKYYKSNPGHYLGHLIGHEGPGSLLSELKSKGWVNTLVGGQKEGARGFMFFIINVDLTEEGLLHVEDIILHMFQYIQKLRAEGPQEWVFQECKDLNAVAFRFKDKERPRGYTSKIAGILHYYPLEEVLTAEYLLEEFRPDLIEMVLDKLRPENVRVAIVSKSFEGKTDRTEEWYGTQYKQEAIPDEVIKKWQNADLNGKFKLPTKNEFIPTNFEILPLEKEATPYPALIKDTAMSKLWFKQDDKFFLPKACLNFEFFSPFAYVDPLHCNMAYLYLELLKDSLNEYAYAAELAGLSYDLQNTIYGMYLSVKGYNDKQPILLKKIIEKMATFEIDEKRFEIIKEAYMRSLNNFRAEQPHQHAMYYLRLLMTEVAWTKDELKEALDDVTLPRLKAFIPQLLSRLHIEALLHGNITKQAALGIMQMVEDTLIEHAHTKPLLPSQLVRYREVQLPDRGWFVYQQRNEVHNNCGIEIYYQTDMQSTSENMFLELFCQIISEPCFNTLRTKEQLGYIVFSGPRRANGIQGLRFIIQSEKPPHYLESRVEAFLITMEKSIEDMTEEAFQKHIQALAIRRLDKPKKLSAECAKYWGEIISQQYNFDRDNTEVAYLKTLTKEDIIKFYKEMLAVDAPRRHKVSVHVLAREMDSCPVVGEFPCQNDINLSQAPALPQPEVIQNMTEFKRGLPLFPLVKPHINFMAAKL

Insulin-degrading enzyme [8] = target: T3, Insulin-degrading enzyme; test: activators of recombinant IDE enzyme, dose response, counter-screen for IDE activator project, biochemical, fluorescence polarization (AID 588681)
cells = format: functional
[9] = Vero E6 cell cytotoxicity, dose response, cytotoxicity control for non-replicating M. tuberculosis project, secondary assay (AID 492998); format: functional, VeroE6; details: Vero C1008
[10] = target: T4, Ubiquitin-conjugating enzyme E2 N (Homo sapiens, UniProt P61088); format: functional;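 further: Dose-response confirmation in a TR-FRET assay detecting UBC13-driven polyubiquitin chain formation, inhibition measured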
T4 sequence (P61088 whole entry): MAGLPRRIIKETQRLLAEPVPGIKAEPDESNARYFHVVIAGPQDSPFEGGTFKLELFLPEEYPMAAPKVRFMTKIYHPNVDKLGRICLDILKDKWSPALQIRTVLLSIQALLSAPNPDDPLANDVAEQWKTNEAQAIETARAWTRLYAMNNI

[11] = THP-1 cell cytotoxicity, dose response, cytotoxicity control for non-replicating M. tuberculosis project (AID 489025); format: functional
[12] = Counterscreen for inhibitors of Trypanosoma brucei methionyl tRNA synthetase (MetRS): Luminescence-based cell-based high throughput dose response assay to identify compounds that are cytotoxic to Jurkat human T lymphocyte cells.; format: functional
HEK293 [13] = test: optical interference in Abeta FP readout, dose response, artefact control for IDE activator project, biochemical, fluorescence polarization (AID 588442); format: functional, cell-based; details: Homo sapiens

| SMILES | EC50 [1] | AC50 [2] | IC50 (HEK293 [3]) | IC50 [4] | CC50 [5] | IC50 [6] | EC50 (Insulin-degrading enzyme [7]) | EC50 (Insulin-degrading enzyme [8]) | IC50 (cells) | CC50 [9] | IC50 [10] | CC50 [11] | IC50 [12] | EC50 (HEK293 [13]) |
| --- | --- | --- | --- | --- | --- | --- | --- | --- | --- | --- | --- | --- | --- | --- |
| COc1cccc(OC)c1OCCNCC1COc2ccccc2O1 (centres undefined) [2- (2,6-DIMETHOXYPHENOXYETHYL)AMINOMETHYL-1,4-BENZODIOXANE HYDROCHLORIDE (WB 4101)] | > 260 µM (inactive) | 11.2 µM (inconclusive) |  |  |  |  |  |  |  |  |  |  |  |  |
| Cc1c(CN2CCC(CO)(CCOc3ccccc3)CC2)[nH]c2ccc(Cl)cc12 |  |  | 28.3 µM (inactive) | 64.4 µM (inactive) | 15.1 µM (active) | 38.8 µM (inactive) | 15.9 µM (inactive) | > 54.7 µM (inactive) | 8.32 µM (active) | 16.8 µM (active) | > 20 µM (inactive) | 17.9 µM (active) | 25.8 µM (inactive) | > 54.7 µM (inactive) |
